Results: patent publication US6492329B1, “Cytokine and hemopoietic factor endogenous production enhancer and methods of use thereof” (Novelos Therapeutics, Inc., priority 1995, dated 2002)

How the values were obtained:
[1] = test system: rat embrional fibroblasts (REF); assay: Number of REF cells throughout 72-hr incubation; assay type: cell-based
Protocol: (§1) To this end, these substances had been incubated for 72 hours with cells of rat embrional fibroblasts (REF) and the same cells, transformed with adenoviral E1A gene in complementation with ras-oncogene (e-ras cell line). Subsequent evaluation of the cellularity of experimental samples was carried out by counting the quantity of cell per milliliter (for REF cell line) or clones in dish (for e-ras cell line).
(§2) Cells were cultivated on DMEM medium supplemented with 10% fetal calf serum and […] gentamicin. Cultivation was carried out in Petri dishes.
(§3) REF cells was cultivated with initial density of 800 000 cell per mL, evaluation of the cellularity was performed at 0, 24, 48 and 72 hours of incubation with the test articles.
(§4) For the test-system for estimation of apoptosis regulation UV-induced cell death was triggered in a dose of 4 Dj. Test articles were added immediately after irradiation. Then, the quantity of cell per milliliter (for REF cell line) or clones in dish (for e-ras cell line) were monitored every 24 hours. For determination of DNA-fragmentation the electrophoresis in agarose gel was used at standard settings.

[2] = test system: e-ras cells after UV-irradiation; assay: Number of clones of e-ras cells after UV-irradiation; assay type: cell-based, rat
Protocol: as §1, §2
(§5) E-ras cells were seeded at a cell density of 300 cells per 5 cm dish. 7 days after growth of e-ras cells had been started the quantity of clones was evaluated and the test articles were added into the dishes.
as §4

[3] = test system: e-ras cell line (REF transformed with E1A and ras-oncogene); assay: Number of clones of e-ras cells throughout 72-hr incubation; assay type: cell-based, rat
Protocol: as §1, §2, §5, §4

leukemia P388 cells = assay: Leukemia P388 in mice: ascitic fluid and survival (Example 14); settings: for Accumulation of ascitic (weight gain, %): leukemia P388; for Mean survival time: mice inoculated with leukemia P388 cells
[4] = test system: rat embrional fibroblasts (REF) after UV-irradiation; assay: Number of REF cells after UV-irradiation; assay type: cell-based
Protocol: as §1, §2, §3, §4

leukemia L1210 cells = assay: Leukemia L1210 in mice: ascitic fluid and survival (Example 14); settings: for Accumulation of ascitic (weight gain, %): leukemia L1210; for Mean survival time: mice inoculated with leukemia L1210 cells
Protocol: (§6) An influence of 7 day course of test article daily administration was studied in respect of tumor progression, which was estimated using the two integral indices: pace of mouse weight gain due to accumulation of ascitic fluid, and by animal mean survival time after inoculation.
(§7) The study was carried out on DBA/2 mice weighing 18-21 g. First, tumor cell passage was performed using 6 animals for each cell line. For this, cells kept at the temperature of the liquid nitrogen were de-frozen and adjusted to the concentration of 5×10^6 cells/mL by sterile Hanks' solution. Then, 6 mice were intra peritoneally inoculated with 0.2 mL of each line cellular suspension.
(§8) Ascitic fluid was collected 6 days after the inoculation with L1210 cells, 8 days after the inoculation with P388 ones and 18 days after inoculation with Erlich adenocarcinoma cells. Thus obtained, the samples of passaged tumor cells were used for the main experiments. The fluid liquid was dissolved by sterile Hanks' solution so that cell concentration be 5×10^6 cells/mL for P388 cells and Erlich adenocarcinoma cells, 5×10^5 cells/mL for L1210 cells.
(§9) Eleven groups of animals with no less than 15 mice each were formed for experiments with either tumor cell line. Mice were inoculated with 0.2 mL of resultant cell suspensions per mouse (10^6 P388 and Erlich adenocarcinoma cells/mouse, and 10^5 L1210 cells/mouse). 24 hours after the tumor cells inoculation, animals were given the first injections of the test articles or vehicles. The test article injections were made daily till the 14th day of the experiment or till the animal death. The volume of solutions injected comprised 0.01 mL/g body weight.
(§10) #1—intact animals receiving imitation of tumor cell inoculation (injection of normal saline) which further were treated with normal saline throughout the entire experiment;
(§11) #2—control animals, inoculated with tumor cells, which further were treated with test article vehicle (normal saline);

[5] = test system: Erlich adenocarcinoma cells; assay: Erlich adenocarcinoma in mice: ascitic fluid and survival (Example 14); settings: for Accumulation of ascitic (weight gain, %): Erlich adenocarcinoma; for Mean survival time: mice inoculated with Erlich adenocarcinoma cells
Protocol: as §6, §7, §8, §9, §10, §11

| SMILES | number of REF cells (M ± m) ([1]; 0 hours of incubation) | number of REF cells (M ± m) ([1]; 24 hours of incubation) | number of REF cells (M ± m) ([1]; 48 hours of incubation) | number of REF cells (M ± m) ([1]; 72 hours of incubation) | number of clones of e-ras cells after UV-irradiation (M ± m) ([2]; 0 hours) | number of clones of e-ras cells after UV-irradiation (M ± m) ([2]; 24 hours) | number of clones of e-ras cells after UV-irradiation (M ± m) ([2]; 48 hours) | number of clones of e-ras cells after UV-irradiation (M ± m) ([2]; 72 hours) | number of clones of e-ras cells (M ± m) ([3]; 0 hours of incubation) | number of clones of e-ras cells (M ± m) ([3]; 24 hours of incubation) | number of clones of e-ras cells (M ± m) ([3]; 48 hours of incubation) | number of clones of e-ras cells (M ± m) ([3]; 72 hours of incubation) | Accumulation of ascitic (weight gain, %) (leukemia P388 cells; number of injection 0) [%] | Accumulation of ascitic (weight gain, %) (leukemia P388 cells; number of injection 3) [%] | Accumulation of ascitic (weight gain, %) (leukemia P388 cells; number of injection 7) [%] | Mean survival time (leukemia P388 cells) | number of REF cells after UV-irradiation (M ± m) ([4]; 0 hours) | number of REF cells after UV-irradiation (M ± m) ([4]; 24 hours) | number of REF cells after UV-irradiation (M ± m) ([4]; 48 hours) | number of REF cells after UV-irradiation (M ± m) ([4]; 72 hours) | other results |
| --- | --- | --- | --- | --- | --- | --- | --- | --- | --- | --- | --- | --- | --- | --- | --- | --- | --- | --- | --- | --- | --- |
| C[S+](C)[O-] [7% DMSO] | 801 ± 12 × 10^3 cells | 1420 ± 17 × 10^3 cells | 2651 ± 36 × 10^3 cells | 5298 ± 39 × 10^3 cells | 268 ± 11 | 171 ± 2 | 108 ± 8 | 103 ± 6 | 268 ± 11 | 271 ± 2 | 268 ± 8 | 243 ± 6 | 0.5 ± 0.1 | 5.4 ± 1.4 | 19.6 ± 1.6 | 20.6 ± 1.8 | 801 ± 12 × 10^3 cells | 420 ± 17 × 10^3 cells | 251 ± 36 × 10^3 cells | 208 ± 39 × 10^3 cells | Accumulation of ascitic (weight gain, %) (leukemia L1210 cells; number of injection 0): 0.51 ± 0.1%; Accumulation of ascitic (weight gain, %) (leukemia L1210 cells; number of injection 3): 6.4 ± 1.4%; Accumulation of ascitic (weight gain, %) (leukemia L1210 cells; number of injection 7): 23.6 ± 2.6%; Mean survival time (leukemia L1210 cells): 10.2 ± 0.8; Accumulation of ascitic (weight gain, %) ([5]; number of injection 0): 0.5 ± 0.2%; Accumulation of ascitic (weight gain, %) ([5]; number of injection 3): 11.4 ± 1.1%; Accumulation of ascitic (weight gain, %) ([5]; number of injection 7): 24.6 ± 2.2%; Mean survival time [5]: 10.3 ± 1.8 |
| NCCSSCCNC(=O)CNC(=O)C(CSSCC(NC(=O)CCC(N)C(=O)O)C(=O)NCC(=O)O)NC(=O)CCC(N)C(=O)O (stereo not drawn) [S-thioeethylamine-GSSG + normal saline] | – | – | – | – | – | – | – | – | – | – | – | – | 0.7 ± 0.2 | 2.1 ± 0.4 | 8.2 ± 1.2 | 28.2 ± 0.8 | – | – | – | – | – |
| NCCSSCCNC(=O)CNC(=O)C(CSSCC(NC(=O)CCC(N)C(=O)O)C(=O)NCC(=O)O)NC(=O)CCC(N)C(=O)O (stereo not drawn) [S-thioethylamine-GSSG + normal saline] | – | – | – | – | – | – | – | – | – | – | – | – | – | – | – | – | – | – | – | – | Accumulation of ascitic (weight gain, %) (leukemia L1210 cells; number of injection 0): 0.77 ± 0.2%; Accumulation of ascitic (weight gain, %) (leukemia L1210 cells; number of injection 3): 3.1 ± 0.4%; Accumulation of ascitic (weight gain, %) (leukemia L1210 cells; number of injection 7): 92 ± 1.2%; Mean survival time (leukemia L1210 cells): 19.2 ± 0.8; Accumulation of ascitic (weight gain, %) ([5]; number of injection 0): 0.8 ± 0.1%; Accumulation of ascitic (weight gain, %) ([5]; number of injection 3): 3.2 ± 0.6%; Accumulation of ascitic (weight gain, %) ([5]; number of injection 7): 10.2 ± 2.2%; Mean survival time [5]: 16.2 ± 1.2 |
| NCCSSCCNC(=O)CNC(=O)C(CSSCC(NC(=O)CCC(N)C(=O)O)C(=O)NCC(=O)O)NC(=O)CCC(N)C(=O)O (stereo not drawn) [S-thioethylamine-GSSG in normal saline] | 789 ± 21 × 10^3 cells | 1422 ± 14 × 10^3 cells | 2602 ± 43 × 10^3 cells | 5112 ± 168 × 10^3 cells | 286 ± 14 | 182 ± 14 | 116 ± 8 | 82 ± 4 | 286 ± 14 | 202 ± 14 | 156 ± 10 | 112 ± 12 | – | – | – | – | 789 ± 21 × 10^3 cells | 422 ± 14 × 10^3 cells | 260 ± 23 × 10^3 cells | 212 ± 16 × 10^3 cells | – |
| NCCSSCCNC(=O)CNC(=O)C(CSSCC(NC(=O)CCC(N)C(=O)O)C(=O)NCC(=O)O)NC(=O)CCC(N)C(=O)O (stereo not drawn) [S-thioethylamine-GSSG, S-thioethylamine-glutathione disulfide] | – | – | – | – | – | – | – | – | – | – | – | – | – | – | – | – | – | – | – | – | apoptosis of normal cells (REF line) ([1]; 72-hr incubation): didn't promote apoptosis of normal cells; death of transformed e-ras cells after UV-irradiation [2]: potentiate death of the transformed cells; death of transformed e-ras cells ([3]; 72-hr incubation): induce a transformed cell death; UV-induced apoptosis of normal cells (REF line) [4]: do not promote the apoptosis of normal cells |
